Here are results for one molecule from EP4663640A1 (Shanghai Institute of Materia Medica, Chinese Academy of …, priority 2023, dated 2024).

Structures are written as SMILES.

The data set in a line: Preliminary pharmacokinetic evaluation, plasma drug concentration after oral administration to mice. In kind it is in vivo, ICR mice. The note with it: male, ICR, mouse, oral 10 mg/kg, Mean ± SD, N = 3. The method, then: The test compound was prepared according to the following solvent: an aqueous solution of DMSO/Tween 80/0.5% (m/v) CMC-Na at a ratio of 2:2:96 (v/v/v), with a drug concentration of 1 mg/mL. Then, the test compound was gavaged to mice at a dosage of 10 mL/kg, with a dose of 10 mg/kg. Each compound was administered to 3 mice. At 1h and 4h after administration, about 50 µL of blood was collected from the orbital venous plexus of the mouse and placed in a centrifuge tube containing EDTA-K2 anticoagulant.

For `Cn1c(=O)n(CCCO)c(=O)c2c1nc(C1(F)CCC(F)(F)CC1)n2Cc1ccc(F)c(Cl)c1` [Example E68, 7-(3-chloro-4-fluorobenzyl)-1-(3-hydroxypropyl)-3-methyl-8-(1,4,4-trifluorocyclohexyl)-3,7-dihydro-1H-purine-2,6-dione], under “1h”, the concentration at 1 h came to 2700 ± 54 ng/mL. This molecule also gave a concentration at 4 h (4h) of 1890 ± 213 ng/mL.
